“Also recorded” adds a separate entry of the source.
Assays:
PGE2-EP4 receptor = molecular target: T1, PGE2-EP4 receptor (Mus musculus, UniProt P32240); assay: PGE2-EP4 receptor inhibitor effect on FGF6-induced UCP1 mRNA in WT-1 cells; type: cell-based, murine; conditions: 10 uM, with FGF6 24 hours
T1 construct: endogenous in cells; host or cells: WT-1 murine brown preadipocytes
Protocol: The role of the PGE2-EP4 receptor was also examined. WT-1 brown adipocytes were pretreated with AH-23848 (Sigma Aldrich), a calcium salt which is an inhibitor of the PGE2-EP4 receptor. Following AH-23848 (“AH”) treatment of the WT-1 cells at concentrations of 0 uM and 10 uM, the cells were treated with FGF6 alone in growth media (DMEM+10% FBS), AH alone, or the combination of FGF6 and AH for 24 hours. UCP1 mRNA expression for each group was then determined.

FGF6 mRNA = FGF6 mRNA expression in adipose tissue of mice treated with β3-adrenergic agonist; type: in vivo, C57BL/6 mice; conditions: intraperitoneal 1 mg/kg body weight for 10 days; relative to PBS control
Protocol: (§1) Total RNA was isolated with QIAzol lysis reagent (Qiagen, Valencia, Calif.) and purified by RNeasy Mini columns (Qiagen) following the manufacture's instructions. cDNA was prepared from total RNA using the Advantage RT-PCR kit (BD Biosciences, Palo Alto, Calif.) according to manufacturer's instructions. Diluted cDNA was used in a PCR reaction with SYBR Green Master Mix (Applied Biosystems, Foster City, Calif.) and primers specifically designed for detection of the gene of interest. PCR reactions were run in duplicate for each sample and quantitated in the ABI Sequence Detection System (Applied Biosystems). Data were expressed as arbitrary units after normalization to levels of expression of internal controls for each sample. Sequences of primers for specific genes are each obtained from the published literature or designed using publically available gene sequence databases. Unless otherwise indicated, gene expression data described in the examples below was obtained using QPCR.
CL316,243 was administered by intraperitoneal injection to the mice at a dose of 1 mg/kg body weight for 10 days.

PTGS2 (COX2) = assay: PTGS2 mRNA / COX2 protein expression in WT-1 brown preadipocytes; type: cell-based, murine
Protocol: as §1
Cells were harvested in lysis buffer (50 mM HEPES, 137 mM NaCl, 1 mM MgCl2, 1 mM CaCl2, 10 mM Na2P2O7, 10 mM NaF, 2 mM EDTA, 10% glycerol, 1% Igepal CA-630, 2 mM vanadate, 10 μg/ml of leupeptin, 10 μg/ml of aprotinin, 2 mM phenylmethylsulfonyl fluoride; pH 7.4). After lysis, lysates were clarified by centrifugation at 12,000×g for 20 min at 4° C., the amount of protein in the supernatants was determined by the Bradford Protein Assay (Bio-Rad Laboratories, Hercules, Calif.). Proteins were directly solubilized in Laemmli sample buffer. Equal amounts of lysates were separated by sodium dodecyl sulfate-polyacrylamide gel electrophoresis and transferred to Immobolin-P membranes. […] Specifically bound primary antibodies were detected with peroxidase-coupled secondary antibody and enhanced chemiluminescence (ECL, Amersham Biosciences, Piscataway, N.J.).
To determine if FGF4, FGF5, FGF6, FGF10, FGF16, FGF17, FGF18 or FGF20 induced either UCP1 mRNA or PTGS2 mRNA expression, murine brown preadipocyte WT-1 cells (Tseng et al., Nat. Cell. Biol. (2005) 7(6):601-611) were grown in growth media (DMEM-high glucose+10% FBS) supplemented with FGF4, FGF5, FGF6, FGF10, FGF16, FGF17, FGF18, FGF20 or buffer (control) in combination with insulin (20 nM) and triidothyronine (T3, 1 nM) for three days. All FGFs were used at a dosage of 200 ng/mL. mRNA was isolated and UCP1 and PTGS2 gene expression levels were evaluated by quantitative reverse transcription polymerase chain reaction (Q-RT-PCR) analysis. […]
To test the role of specific prostaglandins (PGs) in activating UCP1 expression, WT-1 brown adipocytes were pretreated with PGE2, PGI2 and FGF6 for 24 hours. mRNA expression levels of UCP1, PTGS2, LDHA, PDK1 and PKM2 were then measured.

UCP1 = UCP1 mRNA expression (Q-RT-PCR) in WT-1 brown preadipocytes; type: cell-based, murine
Protocol: as §1
The effect of FGF6 on differentiation of WT-1 murine brown preadipocytes was also examined. WT-1 cells can be induced to undergo brown adipocyte differentiation, characterized by lipid accumulation and expression of adipogenic and brown fat markers, as described above (Klein et al. (1999) J Biol Chem 274:34795; Tseng et al. (2005) Nat Cell Biol 7:601). WT-1 cells were treated with FGF6 in growth media (DMEM+10% FBS), a vehicle control (“control” or “C” referred to in FIGS. 3A-D), or induction media (“induction” or “I” referred to in FIGS. 3A-D) as described above for seven days. Following the treatment, cells were examined for the color of the culture media in combination with oil Red O staining, expression of adipogenic markers, expression of brown fat markers, immunofluorescent staining of cells with UCP1 and DPAI, and Western blot analysis to determine the presence of UCP1 and β-tubulin. The results are described in FIGS. 3A to 3D.
UCP1 mRNA expression in brown adipocyte cells was determined at FGF6 concentrations ranging from 0 to 300 ng/ml in the absence of induction cocktail.
In order to determine the length of time necessary to induce UCP1 expression upon exposure to of cells to FGF6, an experiment was performed whereby FGF6 was administered to brown preadipocytes at a concentration of 200 ng/ml and UCP1 expression was determined. FGF21 and a control were also used in the time course experiment. FGF21, a member of the endocrine FGF ligands that has been implicated in the browning of white fat (Fisher F. M. et al., Genes Dev. 26:271-281, 2012). […] FGF6 could acutely induce a significant increase of UCP1 expression as early as 4 hours after a 200 ng/ml dose, as described in FIG. 4B. At 24 hours, the fold-induction of UCP1 mRNA by FGF6 reached 700-fold higher than the untreated cells, as described in FIG. 4B.
To assess FGF6's role in the regulation of mitochondrial activity, FGF6 was stably expressed in WT-1 brown preadipocytes and 3T3-F442A white preadipocytes. Stable cells were generated by viral infection followed by drug selection.
FGF2, FGF6 and FGF9 were used at a dosage of 50 ng/mL, 100 ng/mL, 200 ng/mL or 300 ng/mL. FGF21 was used at the dosage of 50 ng/ml and 500 ng/mL. The concentration of BMP7 was 3.3 nM. RNA was isolated and UCP1 and PPARγ expression levels were evaluated by quantitative reverse transcription polymerase chain reaction (Q-RT-PCR) analysis after 24 hours (i.e., 1 day) (FIG. 14A), 2 days (FIG. 14B), 5 days (FIG. 14C) and 7 days (FIG. 14D) of treatment. All experiments were performed triplicate and the data are presented as mean+/−SEM.
FGF2, FGF6 and FGF9 were used at a dosage of 200 ng/mL. FGF21 was used at a dosage of 500 ng/mL. The concentration of BMP7 was 3.3 nM. mRNA was isolated and UCP1 and PPARγ expression levels were evaluated by quantitative reverse transcription polymerase chain reaction (Q-RT-PCR) analysis after 24 hours (i.e., 1 day), 2 days, 5 days and 7 days of treatment (FIG. 15). […]

[1] = test system: PPARγ, aP2, FAS, PRDM16, PGC1α, CIDEA; assay: Adipogenic and brown fat marker mRNA expression in WT-1 brown preadipocytes; type: cell-based, murine
Protocol: as §1, with “QPCR. […]” for “QPCR.”
FGF2, FGF6 and FGF9 were used at a dosage of 50 ng/mL, 100 ng/mL, 200 ng/mL or 300 ng/mL. […] RNA was isolated and UCP1 and PPARγ expression levels were evaluated by quantitative reverse transcription polymerase chain reaction (Q-RT-PCR) analysis after 24 hours (i.e., 1 day) (FIG. 14A), 2 days (FIG. 14B), 5 days (FIG. 14C) and 7 days (FIG. 14D) of treatment. […]

UCP1 and PTGS2 = UCP1 and PTGS2 mRNA in WT-1 cells undergoing adipocyte differentiation; type: cell-based, murine; conditions: after induction media; 200 ng/mL FGF or 3.3 nM BMP7, 2 days
Protocol: In a separate experiment investigating the ability of FGF proteins to induce UCP1 expression in cells undergoing adipocyte differentiation, WT-1 preadipocyte cells were differentiated by culturing in growth media supplemented with insulin (20 nM) and triiodothyronine (T3, 1 nM) for 3 days, followed by incubation in an induction media (growth medium supplemented 20 nM insulin, 1 nM T3, 0.5 mM isobutyl-methylxanthine, 5 μM dexamethasone) for 2 days. The cell were then exposed to BMP7 (3.3 nM) or 200 ng/mL of FGF2, FGF6 or, FGF9 in growth media supplemented with insulin (20 nM) and triodothyronine (T3, 1 nM) for 2 additional days. Cells were harvested and UCP1 and PTGS2 mRNA expression levels were determined according to the quantitative RT-PCR assay described above. Experiments were performed in triplicate and the data presented as mean+/−SEM.

UCP1 protein = UCP1 protein in WT-1 cells (immunofluorescent staining, Western blot); type: cell-based, murine; conditions: WT-1, 200 ng/mL with insulin 20 nM and T3 1 nM; relative to control cells
Protocol: Cells were harvested in lysis buffer (50 mM HEPES, 137 mM NaCl, 1 mM MgCl2, 1 mM CaCl2, 10 mM Na2P2O7, 10 mM NaF, 2 mM EDTA, 10% glycerol, 1% Igepal CA-630, 2 mM vanadate, 10 μg/ml of leupeptin, 10 μg/ml of aprotinin, 2 mM phenylmethylsulfonyl fluoride; pH 7.4). After lysis, lysates were clarified by centrifugation at 12,000×g for 20 min at 4° C., the amount of protein in the supernatants was determined by the Bradford Protein Assay (Bio-Rad Laboratories, Hercules, Calif.). Proteins were directly solubilized in Laemmli sample buffer. Equal amounts of lysates were separated by sodium dodecyl sulfate-polyacrylamide gel electrophoresis and transferred to Immobolin-P membranes. Membranes were blocked overnight at 4° C. and incubated with the indicated antibody for 2 hours at room temperature. Specifically bound primary antibodies were detected with peroxidase-coupled secondary antibody and enhanced chemiluminescence (ECL, Amersham Biosciences, Piscataway, N.J.).
The effect of FGF6 on differentiation of WT-1 murine brown preadipocytes was also examined. WT-1 cells can be induced to undergo brown adipocyte differentiation, characterized by lipid accumulation and expression of adipogenic and brown fat markers, as described above (Klein et al. (1999) J Biol Chem 274:34795; Tseng et al. (2005) Nat Cell Biol 7:601). […]

[2] = 50, 100 or 300 ng/mL with insulin and T3, three days, FGF1 effect at 300 ng/ml
[3] = 200 ng/mL with insulin and T3, three days

T1 sequence (P32240 whole entry): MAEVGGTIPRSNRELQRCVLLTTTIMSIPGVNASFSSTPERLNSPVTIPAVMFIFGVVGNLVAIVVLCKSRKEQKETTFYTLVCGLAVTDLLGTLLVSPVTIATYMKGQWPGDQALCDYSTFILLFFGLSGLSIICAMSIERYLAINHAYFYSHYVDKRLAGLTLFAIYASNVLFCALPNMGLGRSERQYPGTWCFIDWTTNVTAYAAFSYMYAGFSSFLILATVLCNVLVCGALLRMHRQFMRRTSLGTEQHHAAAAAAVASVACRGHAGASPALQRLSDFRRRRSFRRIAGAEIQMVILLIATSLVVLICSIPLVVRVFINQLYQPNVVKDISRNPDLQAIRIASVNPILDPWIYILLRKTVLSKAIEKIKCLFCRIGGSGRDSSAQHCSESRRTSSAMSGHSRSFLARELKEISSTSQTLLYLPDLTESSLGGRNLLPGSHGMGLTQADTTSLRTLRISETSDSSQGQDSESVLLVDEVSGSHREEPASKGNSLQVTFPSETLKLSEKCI

## O=C(O)CC/C=C\CC[C@H]1[C@H](N2CCOCC2)C(=O)C[C@H]1OCc1ccc(-c2ccccc2)cc1 [AH-23848]
PGE2-EP4 receptor
  effect of FGF6 on UCP1 expression in the presence of inhibitor: reduced; also recorded: suppression

## C[C@H](Cc1ccc2c(c1)OC(C(=O)[O-])(C(=O)[O-])O2)NC[C@H](O)c1cccc(Cl)c1.[Na+].[Na+] [CL316,243]
FGF6 mRNA
  FGF6 mRNA expression levels in interscapular BAT and subcutaneous WAT: increased

## FGF1: fibroblast growth factor 1, recombinant human, R&D Systems
PTGS2 (COX2); [2]
  PTGS2 mRNA expression: induced expression
UCP1; [2]
  UCP1 mRNA expression: induced expression

## FGF2: fibroblast growth factor 2, recombinant human, R&D Systems
[1]; 200 ng/mL with insulin and T3, 1, 2, 5, 7 days
  PPARγ expression level, time course: very low levels of PPARγ
[1]; 50-300 ng/mL with insulin and T3, 1, 2, 5 and 7 days
  PPARγ expression level: very low levels of PPARγ
UCP1 and PTGS2
  PTGS2 mRNA expression in cells undergoing adipocyte differentiation: able to induce
  UCP1 mRNA expression in cells undergoing adipocyte differentiation: able to induce
UCP1 protein
  UCP1 protein, immunofluorescent staining: significant levels of staining
UCP1; 50-300 ng/mL with insulin and T3, 1, 2, 5 and 7 days, dose-responsive
  UCP1 expression level: very high levels of UCP1
UCP1; FGF2, FGF6, FGF9 200 ng/mL, FGF21 500 ng/mL, with insulin and T3, 1, 2, 5, 7 days
  UCP1 expression level, time course: very high levels of UCP1

## FGF16: fibroblast growth factor 16
UCP1; [3]
  expression of UCP1: minimal expression

## FGF20: fibroblast growth factor 20
PTGS2 (COX2); [3]
  PTGS2 mRNA expression relative to the control: increased

Source: patent publication US20170173114A1, “METHODS AND COMPOSITIONS FOR INDUCTION OF UCP1 EXPRESSION” (Joslin Diabetes Center, Inc., priority 2014, published 2017)
